Data: paper PMC7397269, “Synthesis and Evaluation of New Coumarin Derivatives as Antioxidant, Antimicrobial, and Anti-Inflammatory Agents” (Molecules, 2020)
In brackets after ≈: the same amount, converted by molar mass. Several values for one entry are separate records, joined by “and”; a condition that tells them apart may be missing. Equal entries are not always repeated. Where two headings read alike, the source gives them in different places.

Legend:
[1] = tested on: Bacillus megaterium ATCC 9885; test: MIC, two-fold serial dilution, B. megaterium; format: cell-based; conditions: Priestia megaterium, ATCC9885, read-out: Minimum inhibitory concentration, BM
How it was run: (§1)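 Broth tube dilution, two-fold, final 1000–125 μg/mL; inoculum 1 × 10^8 CFU/mL bacteria, 1 × 10^6 CFU/mL yeast (0.1 mL/5 mL); 37 °C, 24 h; MIC read as lowest conc. with no visible growth. Only agar-diffusion actives (IZ > 16 mm) tested.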

COX-1 = target: T1, COX-1 (Homo sapiens, UniProt P23219); test: COX-1 inhibition, Cayman assay kit; format: biochemical; conditions: mean of two determinations
T1 construct: purchased Cayman Chemical 701070
T1 sequence (P23219 24-599): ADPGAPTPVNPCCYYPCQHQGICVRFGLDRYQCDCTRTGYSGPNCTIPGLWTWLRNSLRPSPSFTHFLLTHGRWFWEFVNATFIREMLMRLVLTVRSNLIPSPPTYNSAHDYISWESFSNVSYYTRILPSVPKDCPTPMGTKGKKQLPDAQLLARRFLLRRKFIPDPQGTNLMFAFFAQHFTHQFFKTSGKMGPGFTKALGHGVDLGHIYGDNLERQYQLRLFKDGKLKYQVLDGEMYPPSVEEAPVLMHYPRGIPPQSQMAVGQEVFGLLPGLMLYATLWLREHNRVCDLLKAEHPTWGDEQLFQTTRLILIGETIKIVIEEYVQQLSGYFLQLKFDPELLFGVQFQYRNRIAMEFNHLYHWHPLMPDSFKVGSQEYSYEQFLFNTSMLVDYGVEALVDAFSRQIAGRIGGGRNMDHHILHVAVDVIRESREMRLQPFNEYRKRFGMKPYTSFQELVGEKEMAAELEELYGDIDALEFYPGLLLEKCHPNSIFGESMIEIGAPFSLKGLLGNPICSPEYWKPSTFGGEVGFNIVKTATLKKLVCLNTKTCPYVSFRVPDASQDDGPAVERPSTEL

COX-2 = target: T2, COX-2 (Homo sapiens, UniProt P35354); test: COX-2 inhibition, Cayman assay kit; format: biochemical; conditions: for IC50: mean of two determinations; for SI, selectivity index (COX-1/COX-2): ratio of COX-1/COX-2 IC50
T2 construct: purchased Cayman Chemical 701080
T2 sequence (P35354 18-604): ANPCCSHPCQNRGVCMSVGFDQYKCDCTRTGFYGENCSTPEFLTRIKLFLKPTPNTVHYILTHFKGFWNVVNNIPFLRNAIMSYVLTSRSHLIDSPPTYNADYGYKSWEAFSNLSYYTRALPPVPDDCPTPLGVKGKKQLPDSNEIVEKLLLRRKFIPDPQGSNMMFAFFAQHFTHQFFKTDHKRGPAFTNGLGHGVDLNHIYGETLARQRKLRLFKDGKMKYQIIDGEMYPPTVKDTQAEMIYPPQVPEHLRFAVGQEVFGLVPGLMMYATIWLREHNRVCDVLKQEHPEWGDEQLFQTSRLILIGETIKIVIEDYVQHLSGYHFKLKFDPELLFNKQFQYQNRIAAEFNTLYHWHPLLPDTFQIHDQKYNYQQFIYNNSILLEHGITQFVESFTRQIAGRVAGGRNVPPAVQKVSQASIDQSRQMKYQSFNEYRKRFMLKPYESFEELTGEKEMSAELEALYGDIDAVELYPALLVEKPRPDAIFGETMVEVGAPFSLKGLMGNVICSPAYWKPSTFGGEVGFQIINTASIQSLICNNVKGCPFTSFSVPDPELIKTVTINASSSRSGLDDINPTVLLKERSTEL

[2] = tested on: Bacillus megaterium ATCC 9885; test: Agar well diffusion, B. megaterium; format: cell-based; conditions: Priestia megaterium, ATCC9885, 100 μL of 10 mg/mL in DMSO, read-out: diameter of inhibition zone, BM
How it was run: (§2)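 Agar well diffusion; NA for bacteria, SDA for yeast; inoculum 1 × 10^8 CFU/mL bacteria, 1 × 10^6 CFU/mL yeast. 100 μL of 10 mg/mL compound in DMSO per 10 mm well. 24 h, 37 °C; zone diameter, mm, n=3.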

[3] = tested on: Staphylococcus aureus ATCC 29213; test: Agar well diffusion, S. aureus; format: cell-based; conditions: ATCC29213, 100 μL of 10 mg/mL in DMSO, read-out: diameter of inhibition zone, SA
How it was run: as §2

[4] = tested on: Pseudomonas aeruginosa ATCC 27,953; test: MIC, two-fold serial dilution, P. aeruginosa; format: cell-based; conditions: ATCC27, read-out: Minimum inhibitory concentration, PA
How it was run: as §1

[5] = tested on: Candida albicans NRRL Y-477; test: Agar well diffusion, C. albicans; format: cell-based; conditions: NRRLY477, 100 μL of 10 mg/mL in DMSO, read-out: diameter of inhibition zone, CA
How it was run: as §2

[6] = tested on: Bacillus subtilis ATCC 6633; test: Agar well diffusion, B. subtilis; format: cell-based; conditions: ATCC6633, 100 μL of 10 mg/mL in DMSO, read-out: diameter of inhibition zone, BS
How it was run: as §2

[7] = tested on: Escherichia coli ATCC 2592; test: MIC, two-fold serial dilution, E. coli; format: cell-based; conditions: ATCC2592, read-out: Minimum inhibitory concentration, EC
How it was run: as §1

[8] = tested on: Saccharomyces cerevisiae local isolate; test: Agar well diffusion, S. cerevisiae; format: cell-based; conditions: read-out: diameter of inhibition zone, SC
How it was run: as §2

[9] = tested on: Pseudomonas aeruginosa ATCC 27,953; test: Agar well diffusion, P. aeruginosa; format: cell-based; conditions: ATCC27, 100 μL of 10 mg/mL in DMSO, read-out: diameter of inhibition zone, PA
How it was run: as §2

trypsin = test: Proteinase-inhibitory activity; format: biochemical; conditions: 250 µg/mL; mean ± SD (n = 3)
How it was run: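 Trypsin (0.06 mg per 2 mL, 20 mM Tris-HCl pH 7.4) was preincubated 5 min with test sample at 250 µg/mL, then 0.8% casein was added for 20 min. Perchloric acid stopped the reaction and supernatant absorbance was read at 280 nm. % inhibition is relative to the no-sample control, in triplicate.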

[10] = well diffusion, 100 μL of 10 mg/mL in DMSO, S. cerevisiae

SMILES | MIC [1] [mg/L] | IC50 (COX-1) [µM] | IC50 (COX-2) [µM] | SI, selectivity index (COX-1/COX-2) (COX-2) | zone of inhibition at 10000 µg/mL [2] [mm] | zone of inhibition at 10000 µg/mL [3] [mm] | MIC [4] [mg/L] | zone of inhibition at 10000 µg/mL [5] [mm] | zone of inhibition at 10000 µg/mL [6] [mm] | MIC [7] [mg/L] | zone of inhibition at 10000 µg/mL [8] [mm] | melting point [°C] | zone of inhibition at 10000 µg/mL [9] [mm] | % Inhibition (proteinase) (trypsin) [%] | zone of inhibition at 10000 µg/mL [8, 10] [mm]
Cc1ccc2oc(=O)c3c(c2c1)OC(N)=C(C#N)C3c1ccc([N+](=O)[O-])cc1 (racemic) [2a, (±)-2-Amino-9-methyl-4-(4-nitrophenyl)-5-oxo-4H,5H-pyrano[3,2-c]chromene-3-carbonitrile] | 500 (≈ 1330 µM) | 117 | 2.74 | 42.58 | 25 | 24 | 500 (≈ 1330 µM) | 22 | 22 | 1000 (≈ 2660 µM) | 25 | 259 to 261 | 20 | 17.38 ± 1.63 | 
Cc1ccc2oc(=O)c3c(c2c1)OC(N)=C(C#N)C3c1ccco1 (racemic) [2b, (±)-2-Amino-4-(furan-2-yl)-9-methyl-5-oxo-4H,5H-pyrano[3,2-c]chromene-3-carbonitrile] | 500 (≈ 1560 µM) | 201 | 4.25 | 47.3 and 47.33 | 25 | 25 | 1000 (≈ 3120 µM) | 23 | 23 | 1000 (≈ 3120 µM) | 27 | 251 to 253 | 21 | 74.68 ± 3.01 | 
COc1cc(/C=N/C2=C(C#N)C(c3ccc([N+](=O)[O-])cc3)c3c(c4cc(C)ccc4oc3=O)O2)cc(OC)c1OC (racemic) [5c, (±)-9-methyl-4-(4-nitrophenyl)-5-oxo-2-((3,4,5-trimethoxybenzylidene)amino)-4H,5H-pyrano[3,2-c]chromene-3-carbonitrile] | 500 (≈ 903 µM) | 18.5 | 13.3 | 1.39 | 24 | 23 | 500 (≈ 903 µM) | 24 | 23 | 500 (≈ 903 µM) | 27 | 221 to 223 | 25 | 68.5 ± 6.23 | 
Cc1ccc2oc(=O)c3c(c2c1)OC(/N=C/c1ccc(Cl)cc1Cl)=C(C#N)C3c1ccco1 (racemic) [5f, (±)-2-((2,4-dichlorobenzylidene)amino)-4-(furan-2-yl)-9-methyl-5-oxo-4H,5H-pyrano[3,2-c]chromene-3-carbonitrile] | 1000 (≈ 2100 µM) | 90.2 | 3.1 | 29.1 | 20 | 25 | 1000 (≈ 2100 µM) | 22 | 23 | 1000 (≈ 2100 µM) | 24 | > 300 | 21 | 26.83 ± 5.33 | 
NS(=O)(=O)c1ccc(NS(=O)(=O)c2c(O)c3cc(Cl)ccc3oc2=O)cc1 [7a, 6-Chloro-4-hydroxy-2-oxo-N-(4-sulfamoylphenyl)-2H-chromene-3-sulfonamide] | 500 (≈ 1160 µM) | 239 | 17.4 | 13.75 | 25 | 28 | 250 (≈ 580 µM) | 26 | 29 | 250 (≈ 580 µM) |  | 245 to 247 | 27 | 18.78 ± 2.05 | 26
O=c1oc2ccc(Cl)cc2c(O)c1S(=O)(=O)Nc1ccc(S(=O)(=O)Nc2ncccn2)cc1 [7c, 6-Chloro-4-hydroxy-2-oxo-N-(4-(N-(pyrimidin-2-yl)sulfamoyl)phenyl)-2H-chromene-3-sulfonamide] | 125 (≈ 246 µM) | 62.3 | 19.9 | 3.12 | 30 | 30 | 250 (≈ 491 µM) | 27 | 31 | 125 (≈ 246 µM) |  | 230 to 232 | 24 | 8.9 ± 2.04 | 31 to 32
Cc1ccc2oc(=O)c(S(=O)(=O)Nc3ccc(S(=O)(=O)Nc4ncccn4)cc3)c(O)c2c1 [7d, 4-Hydroxy-6-methyl-2-oxo-N-(4-(N-(pyrimidin-2-yl)sulfamoyl)phenyl)-2H-chromene-3-sulfonamide] | 125 (≈ 256 µM) | 214 | 3.35 | 63.96 | 30 | 30 | 125 (≈ 256 µM) | 30 | 31 | 125 (≈ 256 µM) |  | 207 to 209 | 25 | 36.84 ± 4.87 | 31 to 32
O=c1oc2ccc(Cl)cc2c(O)c1S(=O)(=O)Nc1ccc(S(=O)(=O)Nc2nccs2)cc1 [7e, 6-Chloro-4-hydroxy-2-oxo-N-(4-(N-(thiazol-2-yl)sulfamoyl)phenyl)-2H-chromene-3-sulfonamide] | 500 (≈ 973 µM) | 29.6 | 16.1 | 1.84 | 25 | 23 | 1000 (≈ 1950 µM) | 23 | 25 | 500 (≈ 973 µM) |  | 215 to 217 | 22 | 19.8 ± 2.54 | 20
Cc1ccc2oc(=O)c(S(=O)(=O)Nc3ccc(S(=O)(=O)Nc4nccs4)cc3)c(O)c2c1 [7f, 4-Hydroxy-6-methyl-2-oxo-N-(4-(N-(thiazol-2-yl)sulfamoyl)phenyl)-2H-chromene-3-sulfonamide] | 250 (≈ 507 µM) | 40.9 | 10.1 | 4.06 | 27 | 24 | 500 (≈ 1010 µM) | 24 | 27 | 500 (≈ 1010 µM) |  | 167 to 169 | 24 | 43.88 ± 5.6 | 26
O=c1oc2ccc(Cl)cc2c(O)c1S(=O)(=O)Nc1ccccc1 [8a, 6-Chloro-4-hydroxy-2-oxo-N-phenyl-2H-chromene-3-sulfonamide] | 250 (≈ 711 µM) | 25 | 8.5 | 2.94 | 29 | 26 | 500 (≈ 1420 µM) | 29 | 28 | 500 (≈ 1420 µM) |  | 337 to 339 | 26 | 44.7 ± 8.22 | 28
